These results are taken from PMC8715118, “Assessing potentiation of the (α4)3(β2)2 nicotinic acetylcholine receptor by the allosteric agonist CMPI” (The Journal of Biological Chemistry, 2021).

The target of assay [1] is T1, (α4)3(β2)2 nAChR (Homo sapiens, UniProt P17787+P43681).
T1 construct: expressed in transfected cells; host or cells: Xenopus laevis oocytes injected with cRNA, 8:1 α4:β2
In words: Two-electrode voltage-clamp whole-cell currents, Xenopus oocytes expressing WT (α4)3(β2)2 nAChR. Type of assay: cell-based. Here is the method: (§1) Oocytes-positive female Xenopus laevis were purchased from NASCO, and all procedures were performed according to an animal use protocol approved by the Institutional Animals Care and Use Committee of The University of Texas Health Science Center at Tyler. Ovarian lobules were surgically harvested, treated with collagenase type 2, and Stage V and VI oocytes were visually selected and maintained at 18 °C in modified ND96-gentamicin buffer (96 mM NaCl, 2 mM KCl, 1.8 mM CaCl2, 1 mM MgCl2, 5 mM Hepes, and 50 μg/ml gentamicin, pH 7.6).
(§2) pSP64 Poly(A) plasmids with cDNA encoding for human α4 or β2 nAChR subunit were used to prepare cRNA transcripts suitable for oocyte expression. The plasmids were linearized with AseI (hα4) and PvuII (hβ2), then cRNA transcripts were prepared in vitro using mMESSAGE mMACHINE high yield-capped RNA transcription kits (Ambion, Thermo Fisher Scientific), purified on NucAway Spin column (Invitrogen, Thermo Fisher Scientific), and stored at −80 °C until used. Point mutations within the plasmid encoding the α4 nAChR subunit were introduced using QuikChange II Site-Directed Mutagenesis Kit (Agilent Technologies), as described previously ([28]). To generate amino acid substitutions (K64T, E66I, H116V, H116L, and H116A), two custom-designed complementary oligos containing the desired mutation were used (Integrated DNA Technologies). The forward primers were as the following with the codon for mutated amino acids are underlined and nucleotide(s) changes are bolded and italicized:
(§3) The oocytes were injected with 10 to 50 ng of a cRNA mix containing α4 (WT or mutant) and β2 RNAs at ratios of 8:1(α4:β) or 1:8 (α4:β2) to bias expression toward (α4)3(β2)2 or (α4)2(β2)3 nAChRs, respectively. The injection of oocytes with RNAs mixture containing four folds or higher α4 RNA than β2 RNA have been established to express receptor population that is made up of three α4 and two β2 subunits ([9], [12], [28], [43], [44], [45]).
(§4) 24 to 72 h after cRNA injection, Xenopus oocytes were placed in a custom-made recording chamber that is connected to an eight-channel automated perfusion system (Warner Instruments) and perfused with recording buffer (100 mM NaCl, 2 mM KCl, 1 mM CaCl2, 0.8 mM MgCl2, 1 mM EGTA, and 10 mM Hepes, pH 7.5). Unless otherwise specified in figure legends, each recording run included several drug applications (10 s of an agonist with or without CMPI or NS9283) separated by 3 to 4 min buffer wash intervals. Between recording runs, the oocytes were washed with recording buffer for at last 5 min. The oocytes were voltage-clamped at −50 mV using Oocyte Clamp OC-725B (Warner Instruments). The currents were digitized using Digidata 1550A (Axon Instruments, Molecular Devices), and the peak currents were quantified using pCLAMP 10 (Axon Instruments), then normalized and analyzed using Excel 2010 (Microsoft) and SigmaPlot 11.0 (Systat Software). For NS9283 and CMPI potentiation of agonist-induced responses, the peak currents were normalized to current elicited by agonist alone applied within the same recording run. For the effect of coapplication of 1 μM NS9283 or CMPI on agonist concentration-response curve, the peak currents were normalized to current elicited by saturating concentration of agonist applied within the same recording run. […] I0 = 100 for NS9283 and CMPI potentiation of agonist-induced responses and I0 = 0 for agonist concentration-response experiments. The best-fit values for Imax and EC50 ± SD are presented.
For orientation: Two-electrode voltage clamp is typically applied to oocytes expressing channels or transporters.

The next assay addresses T2, (α4)2(β2)3 nAChR (Homo sapiens, UniProt P17787+P43681).
T2 construct: expressed in transfected cells; host or cells: Xenopus laevis oocytes injected with cRNA, 1:8 α4:β2
In words: Two-electrode voltage-clamp whole-cell currents, Xenopus oocytes expressing (α4)2(β2)3 nAChR. The format is cell-based. Here is the method:
as §1
pSP64 Poly(A) plasmids with cDNA encoding for human α4 or β2 nAChR subunit were used to prepare cRNA transcripts suitable for oocyte expression. The plasmids were linearized with AseI (hα4) and PvuII (hβ2), then cRNA transcripts were prepared in vitro using mMESSAGE mMACHINE high yield-capped RNA transcription kits (Ambion, Thermo Fisher Scientific), purified on NucAway Spin column (Invitrogen, Thermo Fisher Scientific), and stored at −80 °C until used. […]
Two-electrode voltage-clamp recordings of ACh- or TC-2559 induced responses of Xenopus oocytes were performed, as described in ([28]). […] The currents were digitized using Digidata 1550A (Axon Instruments, Molecular Devices), and the peak currents were quantified using pCLAMP 10 (Axon Instruments), then normalized and analyzed using Excel 2010 (Microsoft) and SigmaPlot 11.0 (Systat Software). […]

Assay [2] deals with T3, (α4H116A)3(β2)2 nAChR (Homo sapiens, UniProt P17787+P43681, H142A).
T3 construct: expressed in transfected cells; host or cells: Xenopus laevis oocytes injected with cRNA, 8:1 α4:β2
In words: Two-electrode voltage-clamp, oocytes expressing (α4H116A)3(β2)2 nAChR. The format is cell-based. Here is the method: as §1, §2, §3, §4

The target in assay [3] is T1, (α4)3(β2)2 nAChR. In words: Mechanistic (Monod-Wyman-Changeux two-state model) analysis of current responses, WT (α4)3(β2)2 nAChR. As to conditions: α4:β2 site, WT. The format is cell-based. The text has this: To gain mechanistic insight into receptor activation in the presence of CMPI, we analyzed the currents in the framework of a cyclic two-state (resting and active) allosteric activation model ([31], [32], [33]). In this model, channel opening is mediated by stabilization of the active state by an agonist that, by definition, has higher affinity to the active than resting state.
We commenced by converting the raw amplitudes of current responses to units of probability of being in the active state (PA units).
(§5) Further analysis of electrophysiological data was conducted in the framework of the two-state concerted transition model, adapted from the MWC cyclic model originally used to describe enzyme function ([31], [32], [33]). The raw peak amplitudes of current responses were converted to units of probability of being in the active state (PA).
(§6) The numbers of α4:β2 and α4:α4 binding sites (Nα4:β2 and Nα4:α4) were constrained to 2 and 1, respectively.
(§7) The concentration-response curve for TC-2559 was fitted to the following equation:(3) PA=1/1+L[1+[TC-2559]/KR,TC-2559,α4:β2/1+[TC-2559]/(KR,TC-2559,α4:β2cTC-2559,α4:β2)]^Nα4:β2
(§8) The concentration-response data were analyzed using Equation 3, with the value of L modified to reflect receptor activation by TC-2559, and the affinity and efficacy terms in the equation reflecting the values for CMPI. The number of binding sites for CMPI in Equation 3 was constrained to 1.
(§9) Curve fitting was done using Origin 2020 (OriginLab Corp). The results are reported as best-fit parameter ±SD of the fit. All data are included in the analysis.

Assay [4] has as its target T3, (α4H116A)3(β2)2 nAChR. In words: Mechanistic (Monod-Wyman-Changeux two-state model) analysis of current responses, (α4H116A)3(β2)2 nAChR. The conditions noted are these: α4H116A mutant; for Kd: read-out: KR, equilibrium dissociation constant in the resting receptor. Type of assay: cell-based. Here is the method: as §5, §6, §7, §8, §9
The subject of another assay is nAChR. Set-up: method as in PMID 1378342. As to conditions: nonselective, allosteric antagonist; cited from earlier work.

Like-named read-outs stand apart in the source and are kept apart here.

T1 sequence (P43681 27-627): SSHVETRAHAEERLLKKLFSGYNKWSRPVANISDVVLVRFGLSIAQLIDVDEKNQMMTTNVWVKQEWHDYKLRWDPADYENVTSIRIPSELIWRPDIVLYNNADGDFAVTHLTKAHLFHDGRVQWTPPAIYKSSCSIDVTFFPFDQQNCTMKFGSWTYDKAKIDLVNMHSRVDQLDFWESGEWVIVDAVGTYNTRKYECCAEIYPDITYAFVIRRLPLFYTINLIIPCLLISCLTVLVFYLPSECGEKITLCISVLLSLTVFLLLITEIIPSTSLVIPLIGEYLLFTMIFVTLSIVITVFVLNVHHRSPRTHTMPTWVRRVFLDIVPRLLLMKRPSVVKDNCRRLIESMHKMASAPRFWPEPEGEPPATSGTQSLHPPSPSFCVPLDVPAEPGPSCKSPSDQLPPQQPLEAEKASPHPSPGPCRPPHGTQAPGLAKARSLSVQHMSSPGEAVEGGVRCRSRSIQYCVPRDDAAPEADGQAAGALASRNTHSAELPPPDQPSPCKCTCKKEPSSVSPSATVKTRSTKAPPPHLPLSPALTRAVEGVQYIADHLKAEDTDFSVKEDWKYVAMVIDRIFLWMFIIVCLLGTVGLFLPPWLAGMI
T1 sequence (P17787 26-502): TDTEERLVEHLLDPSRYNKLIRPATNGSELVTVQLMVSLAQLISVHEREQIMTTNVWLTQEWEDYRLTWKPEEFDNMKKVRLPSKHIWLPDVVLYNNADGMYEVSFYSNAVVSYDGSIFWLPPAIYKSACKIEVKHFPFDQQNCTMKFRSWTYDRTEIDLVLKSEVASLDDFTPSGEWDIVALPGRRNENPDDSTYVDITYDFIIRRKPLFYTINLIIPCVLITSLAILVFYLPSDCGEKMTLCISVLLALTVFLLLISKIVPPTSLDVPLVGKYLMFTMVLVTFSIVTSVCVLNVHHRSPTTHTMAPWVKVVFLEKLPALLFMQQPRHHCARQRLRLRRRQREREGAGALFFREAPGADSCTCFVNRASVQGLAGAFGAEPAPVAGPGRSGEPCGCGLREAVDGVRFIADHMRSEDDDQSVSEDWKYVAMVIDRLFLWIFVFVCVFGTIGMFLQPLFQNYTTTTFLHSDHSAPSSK
T3 sequence (P43681 27-627 H142A): as the sequence (P43681 27-627) above, with H116A counted along it
T3 sequence (P17787 26-502): as the sequence (P17787 26-502) above
T2 sequence (P43681 27-627): as the sequence (P43681 27-627) above
T2 sequence (P17787 26-502): as the sequence (P17787 26-502) above

A word on the EC50: it is the concentration that produces a half-maximal response. In general, Emax refers to the size of the effect at its maximum, as opposed to the concentration needed. For the compound `CCOc1cncc(/C=C/CCNC)c1` [TC-2559], the figures for the “I30 μM TC-2559, % of current induced by 1 mM ACh” value on (α4)3(β2)2 nAChR [1] (30 μM TC-2559) and at (α4)2(β2)3 nAChR (30 μM TC-2559) were 11 ± 2% and 152 ± 21%, respectively. Also, the “Emax, % of current induced by 1 mM ACh” value on (α4)3(β2)2 nAChR [1] (WT) is given as ~10%; at (α4H116A)3(β2)2 nAChR [2], 182 ± 5%. In addition, the half-maximal effective concentration (EC50) at (α4)3(β2)2 nAChR [1] (agonist alone, read-out: agonist EC50) was determined as 340 ± 40 nM; at (α4)2(β2)3 nAChR (agonist alone), 540 ± 20 nM; on (α4H116A)3(β2)2 nAChR [2] (absence of CMPI, read-out: EC50 of TC-2559), 22000 ± 7000 nM. Moreover, the Emax at (α4H116A)3(β2)2 nAChR [2] (absence of CMPI, normalized to 100 μM TC-2559) amounted to 115 ± 14%. In addition, the “c, ratio of equilibrium dissociation constants active/resting receptor” value on (α4)3(β2)2 nAChR [3] is given as 0.371 ± 0.006; at (α4H116A)3(β2)2 nAChR [4] (α4:α4 site), 0.046 ± 0.003; at (α4H116A)3(β2)2 nAChR [4] (α4:β2 site), 0.337 ± 0.013. Also, the Kd came to 330 ± 50 nM at (α4)3(β2)2 nAChR [3] (read-out: KR, equilibrium dissociation constant in the resting receptor); 70000 ± 3000 nM at (α4H116A)3(β2)2 nAChR [4] (α4:α4 site); 210 ± 50 nM at (α4H116A)3(β2)2 nAChR [4] (α4:β2 site).

Regarding `CNC1(C)C2CCC(C2)C1(C)C` (stereo not shown) [mecamylamine], the “outward current, mean amplitude, % of the absolute response to 1 mM ACh” value at (α4)3(β2)2 nAChR [1] (100 μM mecamylamine, holding current) was determined as 2.1 ± 0.5%. Also, in the assay on nAChR, the IC50s result was “submicromolar range”.
